Measured values reported in ChEMBL document CHEMBL4130619, “Structure-Based Virtual Screening for the Discovery of Novel Inhibitors of New Delhi Metallo-β-lactamase-1” (ACS Med Chem Lett, 2018).
Values after ≈ are worked out from the molar mass of the structure shown. Blank lines part the entries; values can stand above or below the compound they belong to.

Assays:
[1] = Competitive inhibition of bacterial NDM1 expressed in Escherichia coli JM109 (DE3) pre-incubated for 10 mins before nitrocefin substrate addition by spectrophotometry; parameters: species or system Bacteria
Bacteria [2] = test: Competitive inhibition of bacterial NDM1 expressed in Escherichia coli JM109 (DE3) at 200 uM pre-incubated for 10 mins before nitrocefin substrate addition by spectrophotometry
Escherichia coli [3] = test: Antibacterial activity in Escherichia coli BL21 (DE3) expressing pET-24a-blaNDM-1 incubated at 37 degC for 18 hrs by spectrophotometry; format: functional
Escherichia coli [4] = test: Antibacterial activity in Escherichia coli clinical isolates endogenously expressing NDM1 incubated at 37 degC for 18 hrs by spectrophotometry; format: functional
[5] = molecular target: Beta-lactamase NDM-1 (Escherichia coli) (UniProt E5KIY2); test: Inhibition of NDM1 in Escherichia coli clinical isolates assessed as potentiation of cefazolin-induced antibacterial activity by measuring combination MIC at >256 ug/ml incubated at 37 degC for 18 hrs by spectrophotometry based checkerboard microdilution assay
[6] = molecular target: Beta-lactamase NDM-1 (Escherichia coli) (UniProt E5KIY2); test: Inhibition of NDM1 in Escherichia coli clinical isolates assessed as potentiation of meropenem -induced antibacterial activity by measuring fractional inhibitory concentration index at 64 ug/ml incubated at 37 degC for 18 hrs by spectrophotometry based checkerboard microdilution assay
[7] = molecular target: Beta-lactamase NDM-1 (Escherichia coli) (UniProt E5KIY2); test: Inhibition of NDM1 in Escherichia coli clinical isolates assessed as potentiation of meropenem -induced antibacterial activity by measuring fractional inhibitory concentration index at 32 ug/ml incubated at 37 degC for 18 hrs by spectrophotometry based checkerboard microdilution assay
Bacteria [8] = test: (§1) Inhibition of bacterial NDM1 expressed in Escherichia coli BL21 (DE3) expressing pET-24a-blaNDM-1 assessed as potentiation of cefotaxime-induced antibacterial activity by measuring combination MIC at 0.25 ug/ml incubated at 37 degC for 18 hrs by spectrophotometry based checkerboard microdilution assay
Bacteria [9] = test: as §1, with “meropenem-induced” for “cefotaxime-induced”, “fractional inhibitory concentration index” for “combination MIC”, “0.5” for “0.25”
Bacteria [10] = test: (§2) Inhibition of bacterial NDM1 expressed in Escherichia coli BL21 (DE3) expressing pET-24a-blaNDM-1 assessed as potentiation of meropenem-induced antibacterial activity by measuring combination MIC at 64 ug/ml incubated at 37 degC for 18 hrs by spectrophotometry based checkerboard microdilution assay
[11] = molecular target: Beta-lactamase NDM-1 (Escherichia coli) (UniProt E5KIY2); test: Inhibition of NDM1 in Escherichia coli clinical isolates assessed as potentiation of meropenem -induced antibacterial activity by measuring combination MIC at 64 ug/ml incubated at 37 degC for 18 hrs by spectrophotometry based checkerboard microdilution assay
Bacteria [12] = test: as §1, with “cefazolin-induced” for “cefotaxime-induced”, “fractional inhibitory concentration index” for “combination MIC”
Bacteria [13] = test: as §1, with “cefazolin-induced” for “cefotaxime-induced”
Bacteria [14] = test: as §1, with “ampicillin-induced” for “cefotaxime-induced”, “fractional inhibitory concentration index” for “combination MIC”
[15] = molecular target: Beta-lactamase NDM-1 (Escherichia coli) (UniProt E5KIY2); test: Inhibition of NDM1 in Escherichia coli clinical isolates assessed as potentiation of meropenem-induced antibacterial activity by measuring reduction in meropenem MIC incubated at 37 degC for 18 hrs by spectrophotometry based checkerboard microdilution assay
[16] = molecular target: Beta-lactamase NDM-1 (Escherichia coli) (UniProt E5KIY2); test: Inhibition of NDM1 in Escherichia coli clinical isolates assessed as potentiation of cefotaxime-induced antibacterial activity by measuring fractional inhibitory concentration index at >256 ug/ml incubated at 37 degC for 18 hrs by spectrophotometry based checkerboard microdilution assay
Bacteria [17] = test: as §2, with “fractional inhibitory concentration index” for “combination MIC”
Bacteria [18] = test: as §1, with “fractional inhibitory concentration index” for “combination MIC”
Bacteria [19] = test: as §1, with “ampicillin-induced” for “cefotaxime-induced”
[20] = molecular target: Beta-lactamase NDM-1 (Escherichia coli) (UniProt E5KIY2); test: Inhibition of NDM1 in Escherichia coli clinical isolates assessed as potentiation of cefotaxime-induced antibacterial activity by measuring combination MIC at >256 ug/ml incubated at 37 degC for 18 hrs by spectrophotometry based checkerboard microdilution assay
Bacteria [21] = test: Inhibition of bacterial NDM1 expressed in Escherichia coli BL21 (DE3) expressing pET-24a-blaNDM-1 assessed as potentiation of meropenem-induced antibacterial activity by measuring reduction in meropenem MIC incubated at 37 degC for 18 hrs by spectrophotometry based checkerboard microdilution assay
[22] = molecular target: Beta-lactamase NDM-1 (Escherichia coli) (UniProt E5KIY2); test: Inhibition of NDM1 in Escherichia coli clinical isolates assessed as potentiation of meropenem -induced antibacterial activity by measuring combination MIC at 32 ug/ml incubated at 37 degC for 18 hrs by spectrophotometry based checkerboard microdilution assay
Bacteria [23] = test: Inhibition of bacterial NDM1 expressed in Escherichia coli BL21 (DE3) expressing pET-24a-blaNDM-1 assessed as potentiation of meropenem-induced antibacterial activity by measuring combination MIC at 0.5 ug/ml incubated at 37 degC for 18 hrs by spectrophotometry based checkerboard microdilution assay
[24] = molecular target: Beta-lactamase NDM-1 (Escherichia coli) (UniProt E5KIY2); test: Inhibition of NDM1 in Escherichia coli clinical isolates assessed as potentiation of cefazolin-induced antibacterial activity by measuring fractional inhibitory concentration index at >256 ug/ml incubated at 37 degC for 18 hrs by spectrophotometry based checkerboard microdilution assay
[25] = molecular target: Beta-lactamase NDM-1 (Escherichia coli) (UniProt E5KIY2); test: Inhibition of NDM1 in Escherichia coli clinical isolates assessed as potentiation of meropenem -induced antibacterial activity by measuring combination MIC at 2 ug/ml incubated at 37 degC for 18 hrs by spectrophotometry based checkerboard microdilution assay
Bacteria [26] = test: (§3) Inhibition of bacterial NDM1 expressed in Escherichia coli BL21 (DE3) expressing pET-24a-blaNDM-1 assessed as potentiation of cefazolin-induced antibacterial activity by measuring fractional inhibitory concentration index at >256 ug/ml incubated at 37 degC for 18 hrs by spectrophotometry based checkerboard microdilution assay
Bacteria [27] = test: as §3, with “meropenem-induced” for “cefazolin-induced”, “0.25” for “>256”
Bacteria [28] = test: as §1, with “ampicillin-induced” for “cefotaxime-induced”, “>256” for “0.25”
Bacteria [29] = test: as §3, with “ampicillin-induced” for “cefazolin-induced”, “256” for “>256”
[30] = molecular target: Beta-lactamase NDM-1 (Escherichia coli) (UniProt E5KIY2); test: Inhibition of NDM1 in Escherichia coli clinical isolates assessed as potentiation of ampicillin-induced antibacterial activity by measuring fractional inhibitory concentration index at 128 ug/ml incubated at 37 degC for 18 hrs by spectrophotometry based checkerboard microdilution assay
Bacteria [31] = test: as §1, with “meropenem-induced” for “cefotaxime-induced”
Bacteria [32] = test: Inhibition of bacterial NDM1 expressed in Escherichia coli BL21 (DE3) expressing pET-24a-blaNDM-1 assessed as potentiation of cefotaxime-induced antibacterial activity by measuring combination MIC at 4 ug/ml incubated at 37 degC for 18 hrs by spectrophotometry based checkerboard microdilution assay
Bacteria [33] = test: as §3, with “ampicillin-induced” for “cefazolin-induced”
Bacteria [34] = test: Inhibition of bacterial NDM1 expressed in Escherichia coli BL21 (DE3) expressing pET-24a-blaNDM-1 assessed as potentiation of meropenem-induced antibacterial activity by measuring combination MIC at 16 ug/ml incubated at 37 degC for 18 hrs by spectrophotometry based checkerboard microdilution assay
Bacteria [35] = test: as §1, with “ampicillin-induced” for “cefotaxime-induced”, “256” for “0.25”
Bacteria [36] = test: as §1, with “cefazolin-induced” for “cefotaxime-induced”, “>256” for “0.25”
Bacteria [37] = test: Inhibition of bacterial NDM1 expressed in Escherichia coli BL21 (DE3) expressing pET-24a-blaNDM-1 assessed as potentiation of cefazolin-induced antibacterial activity by measuring combination MIC at 256 ug/ml incubated at 37 degC for 18 hrs by spectrophotometry based checkerboard microdilution assay
Bacteria [38] = test: as §3, with “cefotaxime-induced” for “cefazolin-induced”, “4” for “>256”
Bacteria [39] = test: Inhibition of bacterial NDM1 expressed in Escherichia coli BL21 (DE3) expressing pET-24a-blaNDM-1 assessed as potentiation of cefotaxime-induced antibacterial activity by measuring reduction in cefotaxime MIC incubated at 37 degC for 18 hrs by spectrophotometry based checkerboard microdilution assay
Bacteria [40] = test: as §3, with “meropenem-induced” for “cefazolin-induced”, “16” for “>256”
[41] = molecular target: Beta-lactamase NDM-1 (Escherichia coli) (UniProt E5KIY2); test: Inhibition of NDM1 in Escherichia coli clinical isolates assessed as potentiation of meropenem -induced antibacterial activity by measuring fractional inhibitory concentration index at 2 ug/ml incubated at 37 degC for 18 hrs by spectrophotometry based checkerboard microdilution assay
[42] = molecular target: Beta-lactamase NDM-1 (Escherichia coli) (UniProt E5KIY2); test: Inhibition of NDM1 in Escherichia coli clinical isolates assessed as potentiation of ampicillin-induced antibacterial activity by measuring combination MIC at 128 ug/ml incubated at 37 degC for 18 hrs by spectrophotometry based checkerboard microdilution assay
Bacteria [43] = test: as §3, with “256” for “>256”

- inhibition (Bacteria [2]): > 50%
SMILES: O=C(O)CC(Sc1c[nH]c2ccccc12)C(=O)O (centres undefined)
- Ki [1]: 68 µM

- inhibition (Bacteria [2]): > 50%
SMILES: O=C(O)CN1C(=O)S/C(=C\c2ccccc2Br)C1=O
- Ki [1]: 76 µM

- MIC [5]: 2050 µg/mL
- fractional inhibitory concentration index (FICI) [6]: < 0.501
- fractional inhibitory concentration index (FICI) [7]: < 0.313
- MIC (Bacteria [8]): 4 µg/mL
- fractional inhibitory concentration index (FICI) (Bacteria [9]): < 0.501
- MIC (Bacteria [10]): 0.25 µg/mL
- MIC [11]: 64 µg/mL
- fractional inhibitory concentration index (FICI) (Bacteria [12]): < 0.501
- MIC (Bacteria [13]): 32 µg/mL
- fractional inhibitory concentration index (FICI) (Bacteria [14]): < 0.501
- fold change (FC) [15]: 4
- fractional inhibitory concentration index (FICI) [16]: > 1
- fractional inhibitory concentration index (FICI) (Bacteria [17]): < 0.375
- fractional inhibitory concentration index (FICI) (Bacteria [18]): < 0.501
- MIC (Bacteria [19]): 1020 µg/mL
- MIC [20]: 1020 µg/mL
- fold change (FC) (Bacteria [21]): 4
- MIC [22]: 32 µg/mL
- inhibition (Bacteria [2]): > 50%
- MIC (Bacteria [23]): 0.5 µg/mL
- fractional inhibitory concentration index (FICI) [24]: > 1
SMILES: Sc1nncn1NCc1cccc(Br)c1
- Ki [1]: 1 µM

- inhibition (Bacteria [2]): > 50%
SMILES: O=C(CS(=O)(=O)c1ccccc1)NC1CCCCC1
- Ki [1]: 52 µM

- MIC [5]: 2050 µg/mL
- MIC [25]: 64 µg/mL
- fractional inhibitory concentration index (FICI) (Bacteria [26]): > 1
- fractional inhibitory concentration index (FICI) [7]: < 0.313
- fractional inhibitory concentration index (FICI) (Bacteria [27]): < 0.501
- MIC (Bacteria [8]): 4 µg/mL
- MIC (Bacteria [28]): 1020 µg/mL
- fractional inhibitory concentration index (FICI) (Bacteria [29]): < 0.563
- fold change (FC) [15]: 8
- fractional inhibitory concentration index (FICI) [16]: > 1
- fractional inhibitory concentration index (FICI) (Bacteria [18]): < 0.505
- fractional inhibitory concentration index (FICI) [30]: < 0.375
- MIC (Bacteria [31]): 0.5 µg/mL
- MIC (Bacteria [32]): 2 µg/mL
- fractional inhibitory concentration index (FICI) (Bacteria [33]): > 1
- MIC [20]: 1020 µg/mL
- fold change (FC) (Bacteria [21]): 16
- MIC (Bacteria [34]): 0.25 µg/mL
- MIC (Bacteria [35]): 0.0625 µg/mL
- MIC (Bacteria [36]): 32 µg/mL
- MIC (Bacteria [37]): 1 µg/mL
- fractional inhibitory concentration index (FICI) (Bacteria [38]): < 0.258
- MIC [22]: 32 µg/mL
- inhibition (Bacteria [2]): > 50%
- fold change (FC) (Bacteria [39]): 4
- fractional inhibitory concentration index (FICI) (Bacteria [40]): < 0.281
- fractional inhibitory concentration index (FICI) [41]: < 0.504
- MIC [42]: 16 µg/mL
- fractional inhibitory concentration index (FICI) (Bacteria [43]): < 0.625
- fractional inhibitory concentration index (FICI) [24]: > 1
SMILES: C=CCn1c(S)nnc1-c1ccccc1O
- Ki [1]: 0.72 µM

- inhibition (Bacteria [2]): > 50%
SMILES: Nc1ncnc2c1nc(S(=O)(=O)O)n2Cc1ccccc1
- Ki [1]: 65 µM

- inhibition (Bacteria [2]): > 50%
SMILES: Cc1ccc(-n2nnnc2CS(=O)(=O)c2ccccc2)cc1
- Ki [1]: 71 µM

Further lines, the compound ahead of its results:

SMILES: Cn1c(SCC(=O)O)nnc1-c1ccc(N)cc1
- Ki [1]: 85 µM
- inhibition (Bacteria [2]): > 50%

SMILES: Cc1nnc(SCC2=C(C(=O)O)N3C(=O)[C@@H](NC(=O)Cn4cnnn4)[C@H]3SC2)s1 [CEFAZOLIN]
- MIC (Escherichia coli [3]): ≥ 32 µg/mL

SMILES: Nc1nnnn1NCc1cccc(Cl)c1Cl
- Ki [1]: 67 µM
- inhibition (Bacteria [2]): > 50%

SMILES: C[C@@H](O)[C@H]1C(=O)N2C(C(=O)O)=C(S[C@@H]3CN[C@H](C(=O)N(C)C)C3)[C@H](C)[C@H]12 [MEROPENEM]
- MIC (Escherichia coli [4]): 128 µg/mL (≈ 334 µM)
- MIC (Escherichia coli [3]): 1 µg/mL (≈ 2.61 µM)

SMILES: CO/N=C(\C(=O)N[C@@H]1C(=O)N2C(C(=O)O)=C(COC(C)=O)CS[C@H]12)c1csc(N)n1 [CEFOTAXIME]
- MIC (Escherichia coli [4]): 1020 µg/mL (≈ 2250 µM)
- MIC (Escherichia coli [3]): 8 µg/mL (≈ 17.6 µM)

SMILES: CC1(C)S[C@@H]2[C@H](NC(=O)[C@H](N)c3ccccc3)C(=O)N2[C@H]1C(=O)O [AMPICILLIN]
- MIC (Escherichia coli [4]): > 32800 µg/mL
- MIC (Escherichia coli [3]): 1020 to 2050 µg/mL (≈ 2930 to 5860 µM)
